# Values quoted from earlier work as cited in patent EP3045477B1, “Method for reducing the migration of photoinitiators and their degradation products in UV curable coatings” (IOT - Innovative Oberflächentechnologien GmbH, priority 2015, dated 2016).
# Conditions: listed limit, Verordnung (EU) 10/2011
structure (smiles),measurement,value
"Cc1cc(C(C)(C)C)c(O)c(C(C)(C)C)c1 [Butylhydroxy toluol, Butylhydroxytoluol]",spezifische Migrationslimit,3 mg/kg
